The values below come from article PMC10149936, “Cofilin activation in pancreatic acinar cells plays a pivotal convergent role for mediating CCK-stimulated enzyme secretion and growth” (Frontiers in Physiology, 2023).

Holding throughout (format): cell-based
Assay [1] concerns p44/42 MAPK in AR42J cells. The assay can be described thus: p44/42 MAPK activation (pT202/Y204 Western blot) in AR42J cells. Particulars: Cytochalasin D 10 µM or Paclitaxel 5 µM, 4 h; A71378 30 nM 10 min. Here is the method:
CCK1 receptor transfected Panc-1 (CCK1-R/Panc-1) cells ([Berna et al., 2009]) and AR42J cells, were cultured in DMEM supplemented with 10% FBS and 1% penicillin/streptomycin and in RPMI supplemented with 10% FBS and 1% penicillin/streptomycin, respectively; and split 1:10 weekly with trypsin/EDTA, after washing in PBS. Finally, cells were seeded in 6-well plate and serum starved overnight, until they were 80% confluent. Cells were incubated at 37°C in 5% CO2/95% air. AR42J cells were treated with 100 nM dexamethasone for 72°h, which stimulates their differentiation into exocrine cells ([Logsdon, 1986]).
Western blotting and immunoprecipitation were performed as described previously ([Ramos-Alvarez and Jensen, 2018]). Whole cell lysates were subjected to SDS-PAGE using 4%–20% Tris–Glycine gels. […] The intensity of the protein bands was measured using GeneTools software from Syngene, which were assessed in the linear detection range. […]
FIGURE 12 Effect of two cofilin inhibitors, Cytochalasin D or Paclitaxel (A, B), or cofilin siRNA (C), on the ability of A71378 (30 and 10 nM) to alter activation of cofilin (A) and p44/42 (B, C). […] Western blots were analyzed using anti-pS3 cofilin, anti-pT202/Y204 p44/42 and Tubulin. Bands were visualized using chemiluminescence and quantified by densitometry. […] Results are expressed as % of basal stimulation of the control group. […]
Background: Immunoblotting shows a protein as a band on a membrane.

The subject of assay [2] is LIMK (pT508) in pancreatic acini. The assay can be described thus: LIMK phosphorylation (pT508 LIMK Western blot) in isolated rat pancreatic acini. Here is the method: Pancreatic acini preparations were obtained by collagenase digestion as previously described ([Bissonnette et al., 1984]; [Sato et al., 1989]; [Ramos-Alvarez and Jensen, 2018]). After collagenase digestion, dispersed acini were preincubated with different inhibitors in standard incubation solution ([Ramos-Alvarez and Jensen, 2018]; [Ramos-Ãlvarez et al., 2020]) for 3 h at 37°C under conditions specific for PKD/PKC, Src, PI3K, MAPKs, SSH1, LIMK, cofilin, other phosphatases and PAK4 inhibitors, as described previously ([Ramos-Alvarez and Jensen, 2018]; [Ramos-Ãlvarez et al., 2020]). Isolated acini and CCK1-R/Panc-1 cells (M&M 2.2.1) were also preincubated with two SSH1 inhibitors, D3 (25 μM, 1 h) ([Li et al., 2015]) or SE (50 μM, 3 h for acini; 24 h for CCK1-R/Panc-1 cells) ([Lee et al., 2017]). After preincubation, 1 mL aliquots of dispersed acini were incubated at 37°C for 3–15 min with CCK-8 (0.3 nM or 100 nM), for 5–15 min with TPA (1 µM) or without stimulants, used as control. Cells were lysed in lysis buffer (50 mM Tris/HCl pH 7.5, 150 mM NaCl, 1% Triton X-100, 1% deoxycholate, 0.1% sodium azide, 1 mM EGTA, 0.4 mM EDTA, 0.2 mM sodium orthovanadate, 1 mM PMSF, and one protease inhibitor tablet per 10 mL). After sonication, lysates were centrifuged at 10,000×g for 15 min at 4°C and protein concentration was measured using the Bio-Rad protein assay reagent. Finally, cells were processed as below for Western blotting.
Both concentrations of CCK-8 were used because CCK-8 is reported to have different responses with physiological and supraphysiological concentrations contributing to physiological and pathophysiological processes such as pancreatitis ([Dufresne et al., 2006]).
(§1) Western blotting and immunoprecipitation were performed as described previously ([Ramos-Alvarez and Jensen, 2018]). Whole cell lysates were subjected to SDS-PAGE using 4%–20% Tris–Glycine gels. […] Finally, membranes were then washed again twice in blocking buffer for 4 min, twice in washing buffer for 4 min, incubated for 4 min with chemiluminescence detection reagents. The intensity of the protein bands was measured using GeneTools software from Syngene, which were assessed in the linear detection range.
Isolated pancreatic acini were incubated with either no addition (control), CCK-8 (0.3 and 100 nM) or TPA (1 µM) for the indicated periods of time and then lysed. Western blots were analyzed using anti-pT508 LIMK, anti-pS3 cofilin and anti-pS978 SSH1, which […] the activation states of LIMK, cofilin and SSH1. Bands were visualized using chemiluminescence and quantified by densitometry.

Assay [3] concerns SSH1 (pS978) in pancreatic acini. Briefly: SSH1 phosphorylation (pS978 SSH1 Western blot) in isolated rat pancreatic acini. Particulars: for SSH1 dephosphorylation (activation) at short incubation: 0.5 min and 1.5 min, data not shown; for SSH1 phosphorylation (i.e., deactivation), maximum increment: 30 min. As to the method: Pancreatic acini preparations were obtained by collagenase digestion as previously described ([Bissonnette et al., 1984]; [Sato et al., 1989]; [Ramos-Alvarez and Jensen, 2018]). […] Isolated acini and CCK1-R/Panc-1 cells (M&M 2.2.1) were also preincubated with two SSH1 inhibitors, D3 (25 μM, 1 h) ([Li et al., 2015]) or SE (50 μM, 3 h for acini; 24 h for CCK1-R/Panc-1 cells) ([Lee et al., 2017]). […] Cells were lysed in lysis buffer (50 mM Tris/HCl pH 7.5, 150 mM NaCl, 1% Triton X-100, 1% deoxycholate, 0.1% sodium azide, 1 mM EGTA, 0.4 mM EDTA, 0.2 mM sodium orthovanadate, 1 mM PMSF, and one protease inhibitor tablet per 10 mL). After sonication, lysates were centrifuged at 10,000×g for 15 min at 4°C and protein concentration was measured using the Bio-Rad protein assay reagent. Finally, cells were processed as below for Western blotting.
as §1
FIGURE 2 Time course of phosphorylation of Lim kinase (LIMK) (A), cofilin (B) and Slingshot 1 phosphatase (SSH1) (C) induced by CCK-8 and TPA. Isolated pancreatic acini were incubated with either no addition (control), CCK-8 (0.3 and 100 nM) or TPA (1 µM) for the indicated periods of time and then lysed. Western blots were analyzed using anti-pT508 LIMK, anti-pS3 cofilin and anti-pS978 SSH1, which […] the activation states of LIMK, cofilin and SSH1. Bands were visualized using chemiluminescence and quantified by densitometry. Top: Results of a representative blot of three independent experiments are shown. Bottom: Means ± S.E. of at least 3 independent experiments. Results are expressed as % of basal stimulation of the control group. *, p < 0.05 compared to the control group.

As for `C=C1[C@@H](C)[C@H]2[C@H](Cc3ccccc3)NC(=O)[C@]23[C@H](OC(C)=O)/C=C/[C@@](C)(O)C(=O)[C@@H](C)C/C=C/[C@H]3[C@@H]1O` [Cytochalasin D], the “decrease of A71378-mediated activation of p44/42” value in assay [1] is 34%.
The same measure, in the same setting: the value for `CC(=O)O[C@H]1C(=O)[C@@]2(C)[C@H]([C@H](OC(=O)c3ccccc3)[C@]3(O)C[C@H](OC(=O)[C@H](O)[C@@H](NC(=O)c4ccccc4)c4ccccc4)C(C)=C1C3(C)C)[C@]1(OC(C)=O)CO[C@@H]1C[C@@H]2O` [Paclitaxel] was 36%.
`CCCCCCCCCCCCCC(=O)O[C@@H]1[C@@H](C)[C@@]2(O)[C@@H](C=C(CO)C[C@]3(O)C(=O)C(C)=C[C@@H]23)[C@H]2C(C)(C)[C@]12OC(C)=O` [TPA, 12-O-tetradecanoylphobol-13-acetate]: the “effect on LIMK dephosphorylation” value in assay [2] (TPA 1 µM) was “did not cause LIMK dephosphorylation”. In addition, in assay [3], the “SSH1 dephosphorylation (activation) at short incubation” value is listed as “no dephosphorylation of SSH1 (activation) was seen”. Besides, the “SSH1 phosphorylation (i.e., deactivation), maximum increment” value in assay [3] (TPA 1 µM) is listed as 151%.
Consider “COOH-terminal octapeptide of cholecystokinin [CCK-8]”, for which the “time of return of LIMK phosphorylation to basal levels” value in assay [2] (CCK-8 0.3 or 100 nM) was 30 min. In addition, the “SSH1 dephosphorylation (activation) at short incubation” value in assay [3] is listed as “no dephosphorylation of SSH1 (activation) was seen”. Moreover, in assay [3] (CCK-8 100 nM), the “SSH1 phosphorylation (i.e., deactivation), maximum increment” value is recorded as 162%.
